Experiment [1] relates to HCT116. Kind of experiment: Toxicity test on cells, HCT116. It is filed as cell-based. Conditions: Homo sapiens, HCT-116; 48 hours of treatment, Hoechst nuclei staining. As for the experimental part: (§1) The compounds according to the invention were also tested on the cell lines HuH7, CaCo-2, HCT116, PC3, NCl, HacaT and Fibroblasts.
(§2) Operating Procedure: The cells were cultivated according to the ECACC recommendations. The toxicity test of the compounds on these cells was conducted as follows: 4×10^3 cells/well were sown in 96 wells. 24 hours after sowing the cells, the cells were exposed to increased concentrations of the compounds (0.1 μM-0.3 μM-0.9 μM-2.7 μM-8.3 μM-25 μM). After 48 hours of treatment, the cells were washed in PBS and bound in a cold ethanol/acetic acid (90/5) mixture for 20 minutes. Next, the nuclei were coloured with […] (Sigma). The acquisition of images and the analysis was carried out by means of a reader Cellomics ArrayScan VTI/HCS (Thermo Scientific).

Experiment [2] has as its target PI3Kδ (Homo sapiens, UniProt O00329). Description: PI3Kδ kinase activity, Adapta TR-FRET ADP detection. It counts as biochemical. The following applies: purified p110δ/p85α heterodimer; read-out: Kinases IC50 PI3Kδ. As to the method: (§3) The activity of the PI3Kα kinase was evaluated by using a purified heterodimer (reference: PV4788 from Invitrogen) consisting of the α catalytic p110 subunit (PIK3CA) and the α regulation p85 subunit (PIK3R1). The assay of the kinase with the kit Adapta™ (reference: PV5099 from Invitrogen) is an enzymatic test based on the detection of ADP, produced during the reaction, by the fluorescence technique TR-FRET. It took place in a 384-well plate and was able to be divided into two phases: an enzymatic reaction phase, and a phase for detecting the ADP level.
(§4) During the enzymatic reaction phase, the following components were mixed in 10 μL of a same well: 2.5 μL of each dilution in series of inhibitors taken up in DMSO and then diluted to 1/25 in the reaction buffer (250 mM HEPES pH 7.5, 500 mM NaCl, 0.15 CHAPS, 5 mM EGTA, 15 mM MgCl2 and 1 mM DTT, ref.: PV5101 from Invitrogen), 2.5 μL of a solution containing PI3K at the optimum concentration (concentration defined according to the optimization step described in the operating procedure of the kit) diluted in the same reaction buffer, and finally, 5 μL of a solution containing 20 μM ATP and 100 μM PIP2 diluted in the reaction buffer. For each inhibitor concentration, the reaction was conducted in three copies (triplicate). The reaction was then incubated for 60 min at room temperature without any stirring in darkness.
(§5) During the phase for detecting ADP, 5 μL of a detection solution containing an anti-ADP antibody labeled with europium (6 nM), a tracer of the Alexa Fluor® 647 type coupled with ADP (30 nM), and EDTA (30 mM, for stopping the kinase reaction) were diluted in the dilution buffer (reference: PV3574 from Invitrogen). After 30 min of incubation at room temperature with stirring (40 rpm) in darkness, the 384-well plates were read in a plate reader Victor V configured for HTRF (Perkin Elmer). The excitation was produced at 340 nm and emission was measured at 665 nm and 615 nm. The inhibition curve was then plotted according to the emission ratio at 665 nm/615 nm versus the inhibitor concentration.
(§6) In order to obtain a linear response of the signal, a titration curve ATP-ADP, corresponding to the conversion % of ATP into ADP, was achieved by varying both of these species while keeping [ADP]+[ATP]=10 μM. The emission ratio at 665 nm/615 nm resulting from this (Y) was plotted versus the conversion % of ATP into ADP (X). The data of this curve were formatted according to a model with three hyperbolic parameters from the following equation: Y=C+A*(1−(X/(B+X))).
(§7) The software package GraphPad™ Prism® thus allows calculation of the parameters A, B and C. A conversion % corresponds to an emission ratio 665 nm/615 nm, this percentage is calculated by using the following equation: Conversion %=B*(C+A−Ratio)/(Ratio−C)
(§8) The three parameters A, B and C having been defined by the preceding equation, the conversion % was therefore able to be plotted versus the inhibitor concentration. The amount of inhibitor required for causing a 50% variation in the % conversion of ATP into ADP corresponds to the IC50 value of the inhibitor.
(§9) The activity of the kinase PI3Kγγ (PV4786 from Invitrogen) was evaluated on the p110γγ catalytic subunit (PI3KCG) and that of the kinase PI3Kδδ on the purified heterodimer (PV5273) respectively consisting of the δδ catalytic p110 subunit (PIK3CD) and the α regulation p85 subunit (PIK3R1) by following the same procedure.

The target in experiment [3] is mTOR (Homo sapiens, UniProt P42345). Kind of experiment: mTOR kinase activity, LANCE Ultra TR-FRET. The following applies: truncated mTOR protein, triplicate; read-out: Kinases IC50 mTOR. It is filed as biochemical. As for the experimental part:
The activity of the mTOR kinase was evaluated by using a purified truncated protein of the amino acids 1-1359 (reference: PV4753 from Invitrogen). The assay of the activity of the enzyme was carried out with the kit LANCE® Ultra which is an enzymatic test based on the detection of a phosphorylated peptide produced during the reaction, by using the fluorescence technique TR-FRET. It took place in a 384-well plate and was able to be divided into two phases: an enzymatic reaction phase and a phase for detecting the phosphorylated peptide.
During the enzymatic reaction phase, the following components were mixed in 10 μL of a same well: 5 μL of each dilution in series of inhibitors taken up in DMSO and then diluted to 1/25 in the reaction buffer (50 mM HEPES pH 7.5, 0.1% Tween-20, 1 mM EGTA, 10 mM MnCl2, 3 mM MgCl2 and 2 mM of DTT), 2.5 μL of a solution containing mTOR at the optimum concentration (concentration defined according to the optimization step described in the operating procedure of the kit) diluted in the same reaction buffer, and finally 2.5 μL of a solution containing 40 μM of ATP and 200 μM non-phosphorylated peptide diluted in the reaction buffer. For each inhibitor concentration, the reaction was conducted in three copies (triplicate). The reaction was then incubated for 120 min at room temperature without any stirring in darkness.
During the phase for detecting the phosphorylated peptide, 5 μL of an EDTA solution (32 mM) diluted in the dilution buffer (ref.: CR97-100 from Perkin Elmer) were injected into each well. After 5 min of incubation with stirring, 5 μL of a phosphorylated anti-peptide antibody solution labeled with europium (8 nM) and diluted in the same dilution buffer was added into each well. After 60 min of incubation at room temperature with stirring (40 rpm) in darkness, the 384-well plates were read in a plate reader Victor V configured for HTRF (Perkin Elmer). […] The inhibition curve was then plotted according to the fluorescence intensity value at 665 nm versus the inhibitor concentration.
The amount of inhibitor required for causing a 50% variation in the intensity of the signal corresponds to the IC50 value of the inhibitor.

Experiment [4] has as its system CaCo2. Description: Toxicity test on cells, CaCo2. The following applies: Homo sapiens, Caco-2; 48 hours of treatment, Hoechst nuclei staining. It is filed as cell-based. As for the experimental part: as §1, §2
Experiment [5] addresses PI3Kγ (Homo sapiens, UniProt P48736). Kind of experiment: PI3Kγ kinase activity, Adapta TR-FRET ADP detection. It is filed as biochemical. Conditions: p110γ catalytic subunit; read-out: Kinases IC50 PI3Kγ. As for the experimental part: as §3, §4, §5, §6, §7, §8, §9
(In general: Time-resolved FRET reads energy transfer from a long-lived donor to a nearby acceptor.)

Experiment [6] concerns the target PI3Kα (Homo sapiens, UniProt P42336). Description: PI3Kα kinase activity, Adapta TR-FRET ADP detection. It counts as biochemical. The following applies: purified p110α/p85α heterodimer, triplicate; read-out: Kinases IC50 PI3Kα. As for the experimental part:
as §3, §4, §5, §6, §7, §8

In experiment [7] the test system is NCl. Description: Toxicity test on cells, NCl. It counts as cell-based. Conditions: 48 hours of treatment, Hoechst nuclei staining. As to the method: as §1, §2
Experiment [8] concerns MDA. Description: Toxicity test on cells, MDA. It is filed as cell-based. Conditions: 48 hours of treatment, Hoechst nuclei staining. As for the experimental part: [The procedure below names another cell line; the source lists this cell line under the same test.] as §1, §2
Experiment [9] concerns PC3. Kind of experiment: Toxicity test on cells, PC3. It counts as cell-based. The following applies: Homo sapiens, PC-3; 48 hours of treatment, Hoechst nuclei staining. As to the method: as §1, §2
Experiment [10] concerns HUH7. Kind of experiment: Toxicity test on cells, HUH7. It is filed as cell-based. Conditions: Homo sapiens, Huh-7; 48 hours of treatment, Hoechst nuclei staining. As for the experimental part: as §1, §2
Experiment [11] has as its system Fibroblasts. Kind of experiment: Toxicity test on cells, Fibroblasts. The following applies: Fibroblast; 48 hours of treatment, Hoechst nuclei staining. It is filed as cell-based. As to the method: as §1, §2

pIC50: −log10 of the molar value.

Chain of mTOR (P42345 1360-2549): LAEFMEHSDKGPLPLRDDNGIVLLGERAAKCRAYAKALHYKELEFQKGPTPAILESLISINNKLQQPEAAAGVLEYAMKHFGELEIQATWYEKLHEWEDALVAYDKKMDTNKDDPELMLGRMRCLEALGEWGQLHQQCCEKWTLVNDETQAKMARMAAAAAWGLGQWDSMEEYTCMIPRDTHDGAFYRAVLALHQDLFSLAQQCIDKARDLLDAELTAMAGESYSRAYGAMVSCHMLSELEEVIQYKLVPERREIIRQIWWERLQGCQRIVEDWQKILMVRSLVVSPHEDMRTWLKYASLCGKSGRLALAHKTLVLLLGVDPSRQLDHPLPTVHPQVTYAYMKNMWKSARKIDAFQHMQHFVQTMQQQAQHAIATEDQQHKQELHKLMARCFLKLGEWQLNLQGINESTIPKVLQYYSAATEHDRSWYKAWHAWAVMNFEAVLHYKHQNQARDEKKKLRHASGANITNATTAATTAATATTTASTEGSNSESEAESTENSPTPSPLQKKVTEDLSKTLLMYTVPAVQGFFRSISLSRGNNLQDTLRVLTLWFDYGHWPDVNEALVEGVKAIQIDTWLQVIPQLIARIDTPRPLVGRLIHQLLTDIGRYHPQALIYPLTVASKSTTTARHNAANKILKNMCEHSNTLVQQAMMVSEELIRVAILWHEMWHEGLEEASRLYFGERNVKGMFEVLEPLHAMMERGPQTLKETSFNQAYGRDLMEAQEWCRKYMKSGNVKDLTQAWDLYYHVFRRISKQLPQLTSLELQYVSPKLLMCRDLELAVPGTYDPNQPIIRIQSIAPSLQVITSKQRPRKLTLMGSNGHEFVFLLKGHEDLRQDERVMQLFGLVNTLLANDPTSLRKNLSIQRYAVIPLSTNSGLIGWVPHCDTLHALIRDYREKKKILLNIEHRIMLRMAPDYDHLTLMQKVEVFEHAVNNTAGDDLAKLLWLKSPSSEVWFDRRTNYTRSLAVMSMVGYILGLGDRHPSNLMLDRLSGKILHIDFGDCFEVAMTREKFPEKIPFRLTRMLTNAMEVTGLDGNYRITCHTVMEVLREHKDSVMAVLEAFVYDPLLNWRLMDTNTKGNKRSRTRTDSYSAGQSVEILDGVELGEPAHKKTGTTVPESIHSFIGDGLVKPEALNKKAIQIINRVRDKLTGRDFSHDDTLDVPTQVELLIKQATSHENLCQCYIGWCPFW
Chain of PI3Kα (P42336 whole entry): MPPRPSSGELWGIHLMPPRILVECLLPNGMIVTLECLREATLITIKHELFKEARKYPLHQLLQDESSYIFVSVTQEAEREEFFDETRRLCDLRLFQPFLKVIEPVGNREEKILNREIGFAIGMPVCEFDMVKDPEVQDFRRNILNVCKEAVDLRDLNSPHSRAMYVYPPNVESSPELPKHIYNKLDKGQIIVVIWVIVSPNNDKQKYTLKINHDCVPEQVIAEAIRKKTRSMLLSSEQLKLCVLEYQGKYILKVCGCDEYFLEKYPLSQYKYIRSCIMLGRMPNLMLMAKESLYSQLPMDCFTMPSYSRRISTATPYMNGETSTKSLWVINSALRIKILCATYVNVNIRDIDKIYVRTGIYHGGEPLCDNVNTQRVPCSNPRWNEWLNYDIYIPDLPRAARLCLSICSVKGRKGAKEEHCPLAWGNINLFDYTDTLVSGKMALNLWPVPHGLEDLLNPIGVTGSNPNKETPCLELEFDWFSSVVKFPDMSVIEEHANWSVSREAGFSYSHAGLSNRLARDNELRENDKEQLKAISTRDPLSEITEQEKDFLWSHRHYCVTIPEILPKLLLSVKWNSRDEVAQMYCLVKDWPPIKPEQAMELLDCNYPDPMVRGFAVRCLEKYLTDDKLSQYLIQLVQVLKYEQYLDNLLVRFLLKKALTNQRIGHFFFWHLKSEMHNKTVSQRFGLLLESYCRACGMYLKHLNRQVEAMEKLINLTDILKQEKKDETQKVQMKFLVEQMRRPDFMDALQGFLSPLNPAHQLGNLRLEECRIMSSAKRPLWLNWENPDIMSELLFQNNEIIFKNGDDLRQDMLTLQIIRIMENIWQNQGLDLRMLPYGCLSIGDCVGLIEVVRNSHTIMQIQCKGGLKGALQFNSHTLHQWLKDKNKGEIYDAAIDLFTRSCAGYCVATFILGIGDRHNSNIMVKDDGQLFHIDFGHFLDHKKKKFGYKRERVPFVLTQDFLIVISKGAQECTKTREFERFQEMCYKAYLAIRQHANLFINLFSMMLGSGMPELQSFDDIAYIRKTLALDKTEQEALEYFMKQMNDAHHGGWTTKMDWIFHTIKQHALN
Chain of PI3Kα (P27986 whole entry partner): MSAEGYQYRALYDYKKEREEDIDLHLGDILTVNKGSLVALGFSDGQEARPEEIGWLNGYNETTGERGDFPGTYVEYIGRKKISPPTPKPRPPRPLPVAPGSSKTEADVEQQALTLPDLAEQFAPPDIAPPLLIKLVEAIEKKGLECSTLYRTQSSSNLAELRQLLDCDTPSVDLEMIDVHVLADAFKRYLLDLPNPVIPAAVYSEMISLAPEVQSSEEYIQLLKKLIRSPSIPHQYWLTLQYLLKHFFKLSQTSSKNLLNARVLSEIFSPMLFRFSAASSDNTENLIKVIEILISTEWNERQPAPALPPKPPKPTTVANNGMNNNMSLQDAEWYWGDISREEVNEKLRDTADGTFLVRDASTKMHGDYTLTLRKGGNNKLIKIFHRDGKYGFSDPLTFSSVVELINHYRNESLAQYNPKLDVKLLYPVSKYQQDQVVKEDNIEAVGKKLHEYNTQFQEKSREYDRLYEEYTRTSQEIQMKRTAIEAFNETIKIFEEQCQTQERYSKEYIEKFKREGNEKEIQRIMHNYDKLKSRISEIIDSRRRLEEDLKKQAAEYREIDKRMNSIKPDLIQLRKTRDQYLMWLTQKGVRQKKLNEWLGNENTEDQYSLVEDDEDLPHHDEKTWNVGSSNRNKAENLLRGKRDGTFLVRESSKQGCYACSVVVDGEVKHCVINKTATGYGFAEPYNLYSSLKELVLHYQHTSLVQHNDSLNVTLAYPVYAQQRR
Chain of PI3Kγ (P48736 whole entry): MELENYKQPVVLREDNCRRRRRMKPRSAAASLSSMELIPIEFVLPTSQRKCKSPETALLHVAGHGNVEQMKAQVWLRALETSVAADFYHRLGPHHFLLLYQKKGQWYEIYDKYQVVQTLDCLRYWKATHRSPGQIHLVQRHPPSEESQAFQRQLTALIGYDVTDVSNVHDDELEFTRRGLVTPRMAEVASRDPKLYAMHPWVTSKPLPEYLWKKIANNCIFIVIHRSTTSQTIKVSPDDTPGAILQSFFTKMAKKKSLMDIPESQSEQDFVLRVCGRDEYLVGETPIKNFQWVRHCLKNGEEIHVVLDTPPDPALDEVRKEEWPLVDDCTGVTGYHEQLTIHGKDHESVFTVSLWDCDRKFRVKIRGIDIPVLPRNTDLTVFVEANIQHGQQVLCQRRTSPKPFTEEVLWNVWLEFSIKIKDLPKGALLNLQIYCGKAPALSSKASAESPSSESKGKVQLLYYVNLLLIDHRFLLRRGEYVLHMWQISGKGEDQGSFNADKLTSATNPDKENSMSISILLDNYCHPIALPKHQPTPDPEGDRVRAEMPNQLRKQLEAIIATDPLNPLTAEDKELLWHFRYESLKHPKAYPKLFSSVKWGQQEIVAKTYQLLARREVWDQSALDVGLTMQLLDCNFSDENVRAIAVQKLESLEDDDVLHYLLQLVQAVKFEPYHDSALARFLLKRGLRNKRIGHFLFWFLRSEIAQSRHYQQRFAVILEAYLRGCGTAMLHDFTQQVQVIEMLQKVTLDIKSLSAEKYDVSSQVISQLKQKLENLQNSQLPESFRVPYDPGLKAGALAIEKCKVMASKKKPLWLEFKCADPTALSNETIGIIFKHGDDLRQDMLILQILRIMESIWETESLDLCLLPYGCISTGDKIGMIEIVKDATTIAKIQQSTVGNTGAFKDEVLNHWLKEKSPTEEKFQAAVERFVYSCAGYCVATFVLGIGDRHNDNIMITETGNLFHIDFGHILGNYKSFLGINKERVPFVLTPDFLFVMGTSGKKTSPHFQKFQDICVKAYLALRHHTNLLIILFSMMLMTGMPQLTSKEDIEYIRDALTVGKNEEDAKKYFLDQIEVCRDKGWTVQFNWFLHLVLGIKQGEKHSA

A word on the pIC50: it is the negative decadic logarithm of the IC50, by convention in mol/L. On to `C=Cc1cnc2c(N3CCOCC3)nc(-c3cccc(O)c3)nc2c1` [Compound 14, 3-(4-morpholino-7-vinylpyrido[3,2-d]pyrimidin-2-yl)phenol], for which the pIC50 in experiment [1] is 5.30; in [2] it was 7.96; in [3], 6.96; in [4], 5.82; in experiment [5] it was 6.71; in experiment [6], 7.01. Besides, the pIC50 is 4.70 in experiment [7]; 4.70 in experiment [8]; 4.70 in experiment [9]; 4.70 in experiment [10]; less than 4.60 in experiment [11].

As for `O=Cc1cnc2c(N3CCOCC3)nc(-c3cccc(O)c3)nc2c1` [Compound 20, 2-(3-hydroxyphenyl)-4-morpholinopyrido[3,2-d]pyrimidine-7-carbaldehyde], the pIC50 in [1] was 5.22; in [2], 8.00; in [3], 7.15; in experiment [4] it was 5.40; in experiment [5], less than 4.30; in experiment [6], 7.33. Also, the pIC50 in [7] is less than 4.60; in experiment [8], 4.70; in [9], 4.60; in experiment [10], 4.70; in experiment [11], less than 4.60.

With `OCC(O)c1cnc2c(N3CCOCC3)nc(-c3cccc(O)c3)nc2c1` (centres unmarked) [Compound 22, 1-(2-(3-hydroxyphenyl)-4-morpholinopyrido[3,2-d]pyrimidin-7-yl)ethane-1,2-diol], the pIC50 in experiment [1] is 5.30; in experiment [2] it was 7.39; in experiment [3], 6.34; in experiment [4], 5.40; in experiment [5], 6.46; in experiment [6], 7.09. Moreover, the pIC50 in experiment [7] was less than 4.60; in [8], 5.00; in experiment [9] it was 5.40; in experiment [10], less than 4.60; in experiment [11], less than 4.60.

On to `N#CCc1cnc2c(N3CCOCC3)nc(-c3cccc(O)c3)nc2c1` [Compound 41, 2-(2-(3-hydroxyphenyl)-4-morpholinopyrido[3,2-d]pyrimidin-7-yl)acetonitrile], for which the pIC50 in experiment [2] is 6.47; in [3], 6.09; in experiment [5], 6.90; in experiment [6], 7.29.

Consider `O=C(O)c1cnc2c(N3CCOCC3)nc(-c3cccc(O)c3)nc2c1` [Compound 42, 2-(3-hydroxyphenyl)-4-morpholinopyrido[3,2-d]pyrimidine-7-carboxylic acid], for which the pIC50 was 7.20 in experiment [2], 6.87 in [3], 6.40 in experiment [5] and 8.00 in experiment [6].

Turning to `O=CCCc1cnc2c(N3CCOCC3)nc(-c3cccc(O)c3)nc2c1` [Compound 46], the pIC50 in experiment [2] was 7.09; in experiment [3] it was 5.72; in experiment [5] it was 6.25; in [6] it was 7.24.

As for `CS(=O)(=O)N1CCN(Cc2cnc3c(N4CCOCC4)nc(-c4cccc(O)c4)nc3c2)CC1` [Compound 55, 3-{7-[(4-methanesulfonylpiperazin-1-yl)methyl]-4-(morpholin-4-yl)pyrido[3,2-d]pyrimidin-2-yl}phenol], in [6], the pIC50 was 7.25.

On to `CN(C)Cc1cn(Cc2cnc3c(N4CCOCC4)nc(-c4cccc(O)c4)nc3c2)nn1` [Compound 58, 3-[7-({4-[(dimethylamino)methyl]-1H-1,2,3-triazol-1-yl}methyl)-4-(morpholin-4-yl)pyrido[3,2-d]pyrimidin-2-yl]phenol], for which the pIC50 in experiment [6] is 7.42.

For `COCOCc1cn(Cc2cnc3c(N4CCOCC4)nc(-c4cccc(O)c4)nc3c2)nn1` [Compound 59, 3-[7-({4-[(methoxymethoxy)methyl]-1H-1,2,3-triazol-1-yl}methyl)-4-(morpholin-4-yl)pyrido[3,2-d]pyrimidin-2-yl]phenol], in experiment [6], the pIC50 is 6.94.

Take `Oc1cccc(-c2nc(N3CCOCC3)c3ncc(Cn4cc(CF)nn4)cc3n2)c1` [Compound 61, 3-(7-{[4-(fluoromethyl)-1H-1,2,3-triazol-1-yl]methyl}-4-(morpholin-4-yl)pyrido[3,2-d]pyrimidin-2-yl)phenol]: in experiment [6], the pIC50 is 6.41.

Turning to `COCc1cn(Cc2cnc3c(N4CCOCC4)nc(-c4ccc(NC(=O)NCC(F)(F)F)cc4)nc3c2)nn1` [Compound 82, 1-[4-(7-{[4-(methoxymethyl)-1H-1,2,3-triazol-1-yl]methyl}-4-(morpholin-4-yl)pyrido[3,2-d]pyrimidin-2-yl)phenyl]-3-(2,2,2-trifluoroethyl)urea], in experiment [6], the pIC50 is 7.74.

Source of the values: patent US10202372B2, “Trisubstituted pyrido[2,3-D]pyrimidines, methods for preparing same and therapeutic uses thereof” (CENTRE NATIONAL DE LA RECHERCHE SCIENTIFIQUE (C.N.R.S), priority 2012, dated 2019).
